Reference: patent publication US6593299B1, “Compositions and methods for controlling pests” (priority 1999, dated 2003)
Square brackets hold non-standard residues; d marks the D form. Ends that are not written are not given here. Peptide text beside a SMILES is read from it.

Columns and labels:
[1] = test system: fourth instar Heliothis virescens; assay: Feeding TMOF analogs to fourth instar H. virescens: larval weight; format: in vivo; details: fourth instar larvae; for Weight Gain: 0.8 mg of analogue, 5 days; for Weight mg ± S.E.M. End: synthetic food and 0.8 mg of analogue, after 5 days; for Weight mg ± S.E.M. Start: weight before feeding (baseline)
Description: (§1) Several analogues were chosen and were fed to fourth instar Heliothis virescens for seven (7) days and to first instars for fourteen (14) days (Tables 3 and 4). In both cases a reduction in weight gain and trypsin inhibition was noted (Tables 3 and 4).
(§2) Individual first instar and fourth instar larvae of H. virescens were maintained in separate plastic cups and were fed on artificial diet blocks on which different concentrations of TMOF (0 to 1.6 mg) were adsorbed. Larvae were fed for 5 to 14 days and larval weight and trypsin activity were measured at the end of the experimental periods. […] When first instar larvae were fed for 14 days, an 18% and 26% reduction in weight was observed when analogues 15 and 16 were used (Table 4).
Fourth instar larvae were weighed and fed on synthetic food and 0.8 mg of TMOF analogues for 5 days. […]. Results are average of 3 to 10 experiments S.E.M.

TTLE biosynthesis = assay: Feeding TMOF analogs to fourth instar H. virescens: gut trypsin (TTLE) biosynthesis by [3H]DFP; format: in vivo, Heliothis virescens; parameters: Trypsin: unit not given here; details: fourth instar larvae, 0.8 mg of analogue, 5 days; for Trypsin: guts incubated with [3H]DFP; for Inhibition (trypsin): versus control
[2] = test system: first instar Heliothis virescens; assay: Feeding first instar H. virescens on TMOF analogs for 14 days; format: in vivo; parameters: Weight Reduction ± S.E.M.: concentration or dose not given beside the values; details: first instar larvae fed 14 days; for Weight Reduction ± S.E.M.: versus control
Description: as §1, §2

Aedes aegypti larvae = assay: Feeding TMOF and analog peptides to mosquito larvae (LD50); format: in vivo; details: newly hatched larvae on autoclaved yeast 1 mg/ml, peptide 0 to 5.0 mg/ml, microtiter plates, 7 days
Source text: TMOF can traverse the gut epithelium, enter the hemolymph and bind a gut receptor (Borovsky, D. and F. Mahmood (1995) “Feeding the mosquito Aedes aegypti with TMOF and its analogs; effect on trypsin biosynthesis and egg development,” Regulatory Peptides 57:273-281.; Borovsky et al. (1994) “Characterization and localization of mosquito-gut receptors for trypsin modulating oostatic factor using complementary peptide immunochemistry”FASEB J. 8:350-355.). This characteristic permits the testing of TMOF and its analogues by feeding them to mosquito and other pest larvae. To find out if truncated TMOF peptides have an effect on larval growth and development, a series of peptides were synthesized and tested by feeding them to mosquito larvae at concentrations of 0 to 5.0 mg/ml (Table 2). Individual, newly hatched Aedes aegypti larvae were maintained in separate microtiter plate wells on a diet of autoclaved yeast (1 mg/ml). The diet was supplemented with TMOF peptides (Table 2). An identical number of larvae maintained on yeast served as a control. […] All control groups survived and larval growth and development was normal. Since larvae swallow only a small portion of the yeast particles adsorbed the peptides, it is assumed that approximately 1 to 20 ng are taken orally at the high concentrations.

C[C@H](NC(=O)[C@@H]1CCCN1C(=O)[C@@H](CC(=O)O)NC(=O)[C@@H](N)Cc1ccc(O)cc1)C(=O)N1CCC[C@H]1C(=O)O [17. Y(D)DPAP, Y(D)DPAP] (H-Y[dD]PAP-OH; N-terminus and C-terminus assumed)
Weight Gain [1]: 153 mg | Weight mg ± S.E.M. End [1]: 188 ± 12 mg | Weight mg ± S.E.M. Start [1]: 34.6 ± 2 mg | Trypsin (TTLE biosynthesis): 2.1 ± 0.2 | Inhibition (trypsin) (TTLE biosynthesis): 15 ± 1.3% | Number of Dead Larvae [2]: 1 | Weight ± S.E.M. [2]: 152 ± 27 mg | Weight Reduction ± S.E.M. [2]: 7 ± 1%

N[C@@H](Cc1ccc(O)cc1)C(=O)N[C@H](CC(=O)O)C(=O)N1CCC[C@H]1C(=O)O [22. Y(D)DP, Y(D)DP] (H-Tyr-[dD]-Pro-OH; N-terminus and C-terminus assumed)
LD50 + S.E.M. (Aedes aegypti larvae): 0.28 ± 0.01 mM

N[C@H](Cc1ccc(O)cc1)C(=O)N[C@@H](CC(=O)O)C(=O)N1CCC[C@H]1C(=O)O [24. (D)YDP, (D)YDP] (H-[dY]-Asp-Pro-OH; N-terminus and C-terminus assumed)
LD50 + S.E.M. (Aedes aegypti larvae): 0.51 ± 0.05 mM

C[C@H](NC(=O)[C@H](C)NC(=O)[C@@H](N)CC(=O)O)C(=O)O [25. DAA, DAA] (H-Asp-Ala-Ala-OH; N-terminus and C-terminus assumed)
LD50 + S.E.M. (Aedes aegypti larvae): 0.91 ± 0.06 mM

N[C@@H](Cc1ccc(O)cc1)C(=O)N[C@@H](CC(=O)O)C(=O)NCC(=O)O [26. YDG, YDG] (H-Tyr-Asp-Gly-OH; N-terminus and C-terminus assumed)
LD50 + S.E.M. (Aedes aegypti larvae): 0.95 ± 0.11 mM

N[C@@H](Cc1ccc(O)cc1)C(=O)N[C@@H](CC(=O)O)C(=O)N[C@@H](Cc1ccccc1)C(=O)O [27. YDF, YDF] (H-Tyr-Asp-Phe-OH; N-terminus and C-terminus assumed)
LD50 + S.E.M. (Aedes aegypti larvae): 0.97 ± 0.11 mM

C[C@H](N)C(=O)N1CCC[C@H]1C(=O)N[C@@H](C)C(=O)O [28. APA, APA] (H-Ala-Pro-Ala-OH; N-terminus and C-terminus assumed)
LD50 + S.E.M. (Aedes aegypti larvae): 1.0 ± 0.07 mM

C[C@H](N)C(=O)N[C@@H](C)C(=O)N1CCC[C@H]1C(=O)O [29. AAP, AAP] (H-Ala-Ala-Pro-OH; N-terminus and C-terminus assumed)
LD50 + S.E.M. (Aedes aegypti larvae): 1.08 ± 0.07 mM

N[C@@H](Cc1ccc(O)cc1)C(=O)N[C@@H](CO)C(=O)N[C@@H](Cc1ccccc1)C(=O)O [30. YSF, YSF] (H-Tyr-Ser-Phe-OH; N-terminus and C-terminus assumed)
LD50 + S.E.M. (Aedes aegypti larvae): 1.08 ± 0.12 mM

N[C@@H](CC(=O)O)C(=O)N[C@@H](Cc1ccc(O)cc1)C(=O)N1CCC[C@H]1C(=O)O [31. DYP, DYP] (H-Asp-Tyr-Pro-OH; N-terminus and C-terminus assumed)
LD50 + S.E.M. (Aedes aegypti larvae): 1.27 ± 0.17 mM | Weight Gain [1]: 180.5 mg | Weight mg ± S.E.M. End [1]: 216.7 ± 13 mg | Weight mg ± S.E.M. Start [1]: 36.2 ± 2.4 mg | Trypsin (TTLE biosynthesis): 2.2 ± 0.3 | Inhibition (trypsin) (TTLE biosynthesis): 14 ± 1.8% | Number of Dead Larvae [2]: 1 | Weight ± S.E.M. [2]: 149 ± 9 mg | Weight Reduction ± S.E.M. [2]: 9 ± 0.5%

C[C@H](NC(=O)[C@H](CC(=O)O)NC(=O)[C@@H](N)Cc1ccc(O)cc1)C(=O)O [32. YDA, YDA] (H-Tyr-Asp-Ala-OH; N-terminus and C-terminus assumed)
LD50 + S.E.M. (Aedes aegypti larvae): 1.6 ± 0.13 mM

N[C@@H](Cc1ccccc1)C(=O)N[C@@H](CC(=O)O)C(=O)N1CCC[C@H]1C(=O)O [33. FDP, FDP] (H-Phe-Asp-Pro-OH; N-terminus and C-terminus assumed)
LD50 + S.E.M. (Aedes aegypti larvae): 1.98 ± 0.6 mM

N[C@@H](Cc1ccc(O)cc1)C(=O)N[C@@H](CC(=O)O)C(=O)N1CCC[C@H]1C(=O)O [34. YDP, YDP] (H-Tyr-Asp-Pro-OH; N-terminus and C-terminus assumed)
LD50 + S.E.M. (Aedes aegypti larvae): 2.3 ± 0.4 mM | Weight Gain [1]: 186.3 mg | Weight mg ± S.E.M. End [1]: 223.4 ± 16 mg | Weight mg ± S.E.M. Start [1]: 37 ± 1.5 mg | Trypsin (TTLE biosynthesis): 2.1 ± 0.3 | Inhibition (trypsin) (TTLE biosynthesis): 19 ± 3.2% | Number of Dead Larvae [2]: 0 | Weight ± S.E.M. [2]: 157 ± 10 mg | Weight Reduction ± S.E.M. [2]: 4 ± 0.2%

N[C@@H](Cc1ccccc1)C(=O)N[C@@H](CO)C(=O)N1CCC[C@H]1C(=O)O [35. FSP, FSP] (H-Phe-Ser-Pro-OH; N-terminus and C-terminus assumed)
LD50 + S.E.M. (Aedes aegypti larvae): 2.3 ± 0.13 mM

C[C@H](NC(=O)[C@@H](N)Cc1ccc(O)cc1)C(=O)N1CCC[C@H]1C(=O)O [36. YAP, YAP] (H-Tyr-Ala-Pro-OH; N-terminus and C-terminus assumed)
LD50 + S.E.M. (Aedes aegypti larvae): 2.3 ± 0.5 mM

C[C@H](NC(=O)[C@H](C)NC(=O)[C@@H]1CCCN1)C(=O)O [37. PAA, PAA] (H-Pro-Ala-Ala-OH; N-terminus and C-terminus assumed)
LD50 + S.E.M. (Aedes aegypti larvae): 2.4 ± 0.34 mM

C[C@H](NC(=O)[C@@H]1CCCN1)C(=O)N1CCC[C@H]1C(=O)O [38. PAP, PAP] (H-Pro-Ala-Pro-OH; N-terminus and C-terminus assumed)
LD50 + S.E.M. (Aedes aegypti larvae): 3.17 ± 0.14 mM

C[C@H](NC(=O)[C@@H](N)Cc1ccccc1)C(=O)N1CCC[C@H]1C(=O)O [39. FAP, FAP] (H-Phe-Ala-Pro-OH; N-terminus and C-terminus assumed)
LD50 + S.E.M. (Aedes aegypti larvae): 3.8 ± 0.23 mM

C[C@H](N)C(=O)N[C@@H](CC(=O)O)C(=O)N1CCC[C@H]1C(=O)O [40. ADP, ADP] (H-Ala-Asp-Pro-OH; N-terminus and C-terminus assumed)
LD50 + S.E.M. (Aedes aegypti larvae): >6.6 mM

N[C@@H](Cc1ccc(O)cc1)C(=O)N[C@@H](CC(=O)O)C(=O)O [41. YD, YD] (H-Tyr-Asp-OH; N-terminus and C-terminus assumed)
LD50 + S.E.M. (Aedes aegypti larvae): 1.24 ± 0.06 mM

N[C@@H](CC(=O)O)C(=O)N[C@@H](Cc1ccc(O)cc1)C(=O)O [42. DY, DY] (H-Asp-Tyr-OH; N-terminus and C-terminus assumed)
LD50 + S.E.M. (Aedes aegypti larvae): 3.0 ± 0.8 mM

ADAAP (()..() TMOF analog) [ADAAP(12)]
Weight Gain [1]: 174.1 mg | Weight mg ± S.E.M. End [1]: 209.7 ± 12 mg | Weight mg ± S.E.M. Start [1]: 35.7 ± 1.5 mg | Trypsin (TTLE biosynthesis): 2.4 ± 0.3 | Inhibition (trypsin) (TTLE biosynthesis): 5 ± 0.6% | Number of Dead Larvae [2]: 0 | Weight ± S.E.M. [2]: 141 ± 9 mg | Weight Reduction ± S.E.M. [2]: 7 ± 0.4%

ADPAP [21. ADPAP, ADPAP]
LD50 + S.E.M. (Aedes aegypti larvae): 2.0 ± 0.36 mM

FDPAP [5. FDPAP, FDPAP]
LD50 + S.E.M. (Aedes aegypti larvae): 0.37 ± 0.15 mM

MPDYPPPPP [2. MPDYP5, MPDYP5]
LD50 + S.E.M. (Aedes aegypti larvae): >3.0 mM

YAPAP [8. YAPAP, YAPAP]
LD50 + S.E.M. (Aedes aegypti larvae): 0.54 ± 0.13 mM

YDLAP [13. YDLAP, YDLAP]
LD50 + S.E.M. (Aedes aegypti larvae): 0.6 ± 0.05 mM

YDPAA [19. YDPAA, YDPAA]
LD50 + S.E.M. (Aedes aegypti larvae): 1.6 ± 0.13 mM

YDPAF [3. YDPAF, YDPAF]
LD50 + S.E.M. (Aedes aegypti larvae): 0.33 ± 0.2 mM

YDPAL [7. YDPAL, YDPAL]
LD50 + S.E.M. (Aedes aegypti larvae): 0.52 ± 0.03 mM

YDPAP [12. YDPAP, YDPAP, reference compound]
LD50 + S.E.M. (Aedes aegypti larvae): 0.64 ± 0.03 mM

YDPAPPPPPP [1. YDPAP6, YDPAP6, reference compound]
LD50 + S.E.M. (Aedes aegypti larvae): 0.2 ± 0.02 mM

YDPFP [20. YDPFP, YDPFP]
LD50 + S.E.M. (Aedes aegypti larvae): 1.7 ± 0.4 mM

YDPLP [6. YDPLP, YDPLP]
LD50 + S.E.M. (Aedes aegypti larvae): 0.5 ± 0.04 mM

YEPAP [4. YEPAP, YEPAP]
LD50 + S.E.M. (Aedes aegypti larvae): 0.35 ± 0.02 mM

YFPAP [11. YFPAP, YFPAP]
LD50 + S.E.M. (Aedes aegypti larvae): 0.64 ± 0.03 mM

YNPAP [9. YNPAP, YNPAP]
LD50 + S.E.M. (Aedes aegypti larvae): 0.55 ± 0.03 mM
